Assay results reported in US20190292521A1, “COMPOSITION FOR PROMOTING GROWTH OF STEM CELLS COMPRISING PHYTOSPHINGOSINE-1-PHOSPHATE OR DERIVATIVES THEREOF, AND COMPOSITION FOR CULTURING MEDIA OF STEM CELLS COMPRISING SAME” (AXCESO BIOPHARMA CO., LTD., priority 2016, published 2019).
Read-outs that look alike come from different tables or passages of the source.

Columns and labels:
Assay type in all cases: cell-based
[1] = tested on: Human mesenchymal stem cells; assay: Measurement of stem cell proliferation capacity (Ez-Cytox, absorbance 450 nm); conditions: 1 uM; for increase of proliferation effect: cultured for 7 days, vs control without compound; for proliferation of stem cells: human mesenchymal stem cells, FIG. 1
Experimental: (§1) Human mesenchymal stem cells were cultured in DMEM medium (Invitrogen) containing 10% fetal bovine serum and 1% penicillin/streptomycin at 37° C. under 5% CO2, and the medium was changed every 3 days. After culturing the cells for 24 hours, P1P, cyclic P1P, and NAPS-1-P were dissolved in DMSO (Sigma) to a concentration of 2 mM, and appropriately diluted and added to the medium such that the final concentration was 1 μM. The absorbance was measured at 450 nm using Ez-Cytox at 24 hours (1 day), 48 hours (2 days), 120 hours (5 days) and 168 hours (7 days) after the addition, and the proliferation capacity of the stem cells according to P1P, cyclic P1P and NAPS-1 were measured. For the control group, an experiment was performed under the same conditions as above except that P1P, cyclic P1P and NAPS-1-P were not included.

[2] = tested on: human-derived adipose stem cells; assay: Growth promoting capacity on human-derived adipose stem cells; conditions: cultured for 2 days, different concentrations; optimal effect at 10 nM and 100 nM, FIG. 2
Experimental: as §1
In addition, the growth promoting-capacity of human-derived adipose stem cells was examined.

[3] = tested on: human-derived adipose stem cells; assay: Viability of stem cells with oxidative stress induced by hydrogen peroxide (H2O2); conditions: 6 hours after H2O2
Experimental: Human-derived adipose stem cells were cultured in DMEM medium containing 10% fetal bovine serum and 1% penicillin/streptomycin at 37° C. under 5% CO2. After culturing the cells for 24 hours, P1P, cP1P and NAPS-1-P were dissolved in DMSO to a concentration of 2 mM, and appropriately diluted and added to the medium such that the final concentrations were 10 nM, 100 nM, 1000 nM. After 1 hour of culture, 350 μM of H2O2 was added to the stem cells and cultured. After 6 hours, the absorbance was measured at 450 nm using Ez-Cytox, and the effect of P1P and derivatives thereof on the viability of stem cells against oxidative stress was measured. For the control group, an experiment was performed under the same conditions as above except that P1P, cyclic P1P, and NAPS-1-P were not included.

[4] = tested on: human-derived adipose stem cells; assay: Stem cell viability according to concentration of fetal bovine serum (serum-free or low-serum medium); conditions: read-out: viability as compared with 10% fetal bovine serum
Experimental: Human-derived adipose stem cells were cultured in DMEM medium having different concentrations of fetal bovine serum at 37° C. under 5% CO2. After culturing for 24 hours, the cells were washed twice with PBS at 37° C. to remove the serum components. Then, the cells were cultured in new DMEM medium containing 1 μM P1P and 1% fetal bovine serum. After 4 days, the absorbance was measured at 450 nm using an Ez-Cytox Cell Viability Assay Kit (Daeil Biotech) to measure the viability of stem cells according the concentration of fetal bovine serum and P1P. For the control group, an experiment was performed under the same conditions as above except that P1P was not included.

[5] = tested on: human-derived adipose stem cells; assay: Osteogenic differentiation capacity (Alizarin Red S staining); conditions: osteogenic differentiation medium
Experimental: Human-derived adipose stem cells were cultured in DMEM medium containing 10% fetal bovine serum and 1% penicillin/streptomycin at 37° C. under 5% CO2. After 24 hours of culture, P1P and derivatives thereof were diluted with the medium and added. After 24 hours of culture, the medium was replaced with a differentiation medium and changed with a differentiation medium every 3 days. The cells were cultured in alpha-DEM medium containing 10% fetal bovine serum, 10 nM dexamethasone, 0.2 mM ascorbic acid, 10 mM beta-glycerol phosphate and 1% penicillin/streptomycin at 37° C. under 5% CO2 as a composition for the differentiation medium. After 2 to 4 weeks, the stem cells were fixed and stained with Alizarin Red S. After removing the stem cell culture medium, the cells were washed 3 times with PBS, and after removal of PBS, the cells were fixed using 4% formaldehyde solution for 20 minutes at room temperature. After washing the cells 3 times with PBS, the cells were treated with a 2% Alizarin Red S solution for 20 minutes. […] For the control group, an experiment was performed under the same conditions as above except that P1P, cyclic P1P, and NAPS-1-P were not included.

[6] = fetal bovine serum reduced to 2%

| Structure (SMILES) | increase of proliferation effect [1] [fold] | proliferation of stem cells [1] | cell growth / proliferation effect [2] | Cell viability (%) by H2O2 treatment (350 uM) ([3]; compound 10 nM) [%] | Cell viability (%) by H2O2 treatment (350 uM) ([3]; compound 100 nM) [%] | Cell viability (%) by H2O2 treatment (350 uM) ([3]; compound 1000 nM) [%] | viability at 1 µM [4, 6] [%] | viability at 1 µM ([4]; serum-free medium) [%] | osteogenic differentiation capacity [5] |
| --- | --- | --- | --- | --- | --- | --- | --- | --- | --- |
| CCCCCCCCCCCCCC[C@@H](O)[C@@H](O)[C@H](COP(=O)(O)O)NC(C)=O [NAPS-1-P, N-acetyl phytosphingosine-1-phosphate] | 2 | promoted the proliferation of stem cells to a similar level | showed a higher proliferation effect | 75 | 83 | 86 | 70 to 80 | ~50 | – |
| CCCCCCCCCCCCCC[C@@H](O)[C@H]1OP(=O)(O)OC[C@@H]1N [cP1P, O-cyclic P1P] | 2 | promoted the proliferation of stem cells to a similar level | showed a higher proliferation effect | 77 | 84 | 86 | 70 to 80 | ~50 | remarkably improved |
